Measured values from PubChem BioAssay (NCI).
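Compound exposure: 48 hours, 5 concentrations, 96-well plates. Definition used: TGI = concentration required for complete inhibition of growth.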

Legend:
Experiment in all cases: growth of human tumour cells (NCI), 48 h
SK-MEL-28 melanoma = tested on: SK-MEL-28 melanoma
M14 melanoma = tested on: M14 melanoma
HT29 colon = tested on: HT29 colon
CCRF-CEM leukemia = tested on: CCRF-CEM leukemia
HOP-62 NSCLC = tested on: HOP-62 NSCLC
NCI-H522 lung = tested on: NCI-H522 lung
EKVX NSCLC = tested on: EKVX NSCLC
HCC-2998 colon = tested on: HCC-2998 colon
SN12C renal = tested on: SN12C renal
SR leukemia = tested on: SR leukemia
SNB-19 CNS = tested on: SNB-19 CNS
SK-OV-3 ovarian = tested on: SK-OV-3 ovarian
SK-MEL-2 melanoma = tested on: SK-MEL-2 melanoma
PC-3 prostate = tested on: PC-3 prostate
HOP-92 NSCLC = tested on: HOP-92 NSCLC
MCF7 breast = tested on: MCF7 breast
RPMI-8226 leukemia = tested on: RPMI-8226 leukemia
UACC-62 melanoma = tested on: UACC-62 melanoma
HS 578T breast = tested on: HS 578T breast
ACHN renal = tested on: ACHN renal
NCI-H226 lung = tested on: NCI-H226 lung
SK-MEL-5 melanoma = tested on: SK-MEL-5 melanoma
NCI/ADR-RES ovarian = tested on: NCI/ADR-RES ovarian
786-0 renal = tested on: 786-0 renal
CAKI-1 renal = tested on: CAKI-1 renal
HL-60(TB) leukemia = tested on: HL-60(TB) leukemia
UO-31 renal = tested on: UO-31 renal
SF-295 CNS = tested on: SF-295 CNS
TK-10 renal = tested on: TK-10 renal
OVCAR-4 ovarian = tested on: OVCAR-4 ovarian
UACC-257 melanoma = tested on: UACC-257 melanoma
SW-620 colon = tested on: SW-620 colon
OVCAR-3 ovarian = tested on: OVCAR-3 ovarian
KM12 colon = tested on: KM12 colon
MDA-N = tested on: MDA-N
BT-549 breast = tested on: BT-549 breast
MDA-MB-231 breast = tested on: MDA-MB-231 breast
SF-539 CNS = tested on: SF-539 CNS
U251 CNS = tested on: U251 CNS
MALME-3M melanoma = tested on: MALME-3M melanoma
NCI-H460 lung = tested on: NCI-H460 lung
SF-268 CNS = tested on: SF-268 CNS
NCI-H23 lung = tested on: NCI-H23 lung
MOLT-4 leukemia = tested on: MOLT-4 leukemia
OVCAR-5 ovarian = tested on: OVCAR-5 ovarian
HCT-116 colon = tested on: HCT-116 colon
HCT-15 colon = tested on: HCT-15 colon
IGROV1 ovarian = tested on: IGROV1 ovarian
SNB-75 CNS = tested on: SNB-75 CNS
OVCAR-8 ovarian = tested on: OVCAR-8 ovarian
A549 NSCLC = tested on: A549 NSCLC
T-47D breast = tested on: T-47D breast
K-562 leukemia = tested on: K-562 leukemia
LOX IMVI melanoma = tested on: LOX IMVI melanoma
MDA-MB-435 = tested on: MDA-MB-435
COLO 205 colon = tested on: COLO 205 colon
DU-145 prostate = tested on: DU-145 prostate
RXF 393 renal = tested on: RXF 393 renal
A498 renal = tested on: A498 renal
HOP-18 NSCLC = tested on: HOP-18 NSCLC
KM20L2 colon = tested on: KM20L2 colon
DLD-1 colon = tested on: DLD-1 colon
DMS 273 small cell lung = tested on: DMS 273 small cell lung
M19-MEL melanoma = tested on: M19-MEL melanoma
DMS 114 small cell lung = tested on: DMS 114 small cell lung
LXFL 529 NSCLC = tested on: LXFL 529 NSCLC
SNB-78 CNS = tested on: SNB-78 CNS

For `COc1cc(C[C@@]2(C)[C@@H]3CCC[C@H](CO)[C@@]3(C)CC[C@@H]2C)c(Cl)c(OC)c1`, the TGI (SK-MEL-28 melanoma) was 60.9 µM, the TGI (M14 melanoma) was 36.8 µM and the TGI (HT29 colon) was 26 µM. For the same compound, the TGI (CCRF-CEM leukemia) was > 100 µM, the TGI (HOP-62 NSCLC) was 31.6 µM and the TGI (NCI-H522 lung) was 28.9 µM. For the same compound, the TGI (EKVX NSCLC) was 27.5 µM, the TGI (HCC-2998 colon) was 29.8 µM and the TGI (SN12C renal) was 30 µM. For the same compound, the TGI (SR leukemia) was 48.5 µM, the TGI (SNB-19 CNS) was 33.8 µM and the TGI (SK-OV-3 ovarian) was 31.3 µM. For the same compound, the TGI (SK-MEL-2 melanoma) was 33.5 µM, the TGI (PC-3 prostate) was 27.2 µM and the TGI (HOP-92 NSCLC) was 30.5 µM. The TGI (MCF7 breast) was 29.8 µM, the TGI (RPMI-8226 leukemia) was 76.2 µM and the TGI (UACC-62 melanoma) was 28.9 µM. For the same compound, the TGI (HS 578T breast) was 47.5 µM, the TGI (ACHN renal) was 29.4 µM and the TGI (NCI-H226 lung) was 32.5 µM. The TGI (SK-MEL-5 melanoma) was 31.8 µM, the TGI (NCI/ADR-RES ovarian) was 31.3 µM and the TGI (786-0 renal) was 29.1 µM. It also gave a TGI (CAKI-1 renal) of 31.1 µM, a TGI (HL-60(TB) leukemia) of 47.3 µM and a TGI (UO-31 renal) of 31.5 µM. For the same compound, the TGI (SF-295 CNS) was 29.9 µM, the TGI (TK-10 renal) was 35.1 µM and the TGI (OVCAR-4 ovarian) was 33.3 µM. The TGI (UACC-257 melanoma) was 35.2 µM, the TGI (SW-620 colon) was 84.6 µM and the TGI (OVCAR-3 ovarian) was 28.8 µM. It also gave a TGI (KM12 colon) of 37.8 µM, a TGI (MDA-N) of 30.1 µM and a TGI (BT-549 breast) of 33.8 µM. For the same compound, the TGI (MDA-MB-231 breast) was 32.3 µM, the TGI (SF-539 CNS) was 29.4 µM and the TGI (U251 CNS) was 29 µM. For the same compound, the TGI (MALME-3M melanoma) was 32 µM, the TGI (NCI-H460 lung) was 36.3 µM and the TGI (SF-268 CNS) was 30.8 µM. It also gave a TGI (NCI-H23 lung) of 37.2 µM, a TGI (MOLT-4 leukemia) of 44.6 µM and a TGI (OVCAR-5 ovarian) of 32.9 µM. The TGI (HCT-116 colon) was 24.7 µM, the TGI (HCT-15 colon) was 34.1 µM and the TGI (IGROV1 ovarian) was 29.1 µM. The TGI (SNB-75 CNS) was 31.9 µM, the TGI (OVCAR-8 ovarian) was 31.7 µM and the TGI (A549 NSCLC) was 29.6 µM. For the same compound, the TGI (T-47D breast) was 22.9 µM, the TGI (K-562 leukemia) was 53 µM and the TGI (LOX IMVI melanoma) was 32.9 µM. For the same compound, the TGI (MDA-MB-435) was 27.1 µM, the TGI (COLO 205 colon) was 30.2 µM and the TGI (DU-145 prostate) was 30 µM. It also gave a TGI (RXF 393 renal) of 24.7 µM.

In the case of `CCC1(CC)C(=O)NC(=O)NC1=S`, the TGI (SK-MEL-28 melanoma) is reported as > 100 µM, the TGI (M14 melanoma) is reported as > 100 µM and the TGI (HT29 colon) is reported as > 100 µM. For the same compound, the TGI (CCRF-CEM leukemia) was > 100 µM, the TGI (A498 renal) was > 100 µM and the TGI (HOP-62 NSCLC) was > 100 µM. For the same compound, the TGI (NCI-H522 lung) was > 100 µM, the TGI (EKVX NSCLC) was > 100 µM and the TGI (SN12C renal) was > 100 µM. The TGI (SNB-19 CNS) was > 100 µM, the TGI (SK-OV-3 ovarian) was > 100 µM and the TGI (SK-MEL-2 melanoma) was > 100 µM. For the same compound, the TGI (HOP-18 NSCLC) was > 100 µM, the TGI (HOP-92 NSCLC) was > 100 µM and the TGI (KM20L2 colon) was > 100 µM. The TGI (RPMI-8226 leukemia) was > 100 µM, the TGI (UACC-62 melanoma) was > 100 µM and the TGI (DLD-1 colon) was > 100 µM. The TGI (DMS 273 small cell lung) was > 100 µM, the TGI (ACHN renal) was > 100 µM and the TGI (NCI-H226 lung) was > 100 µM. The TGI (786-0 renal) was > 100 µM, the TGI (HL-60(TB) leukemia) was > 100 µM and the TGI (UO-31 renal) was > 100 µM. The TGI (SF-295 CNS) was > 100 µM, the TGI (TK-10 renal) was > 100 µM and the TGI (OVCAR-4 ovarian) was > 100 µM. For the same compound, the TGI (UACC-257 melanoma) was > 100 µM, the TGI (SW-620 colon) was > 100 µM and the TGI (OVCAR-3 ovarian) was > 100 µM. For the same compound, the TGI (SF-539 CNS) was > 100 µM, the TGI (U251 CNS) was > 100 µM and the TGI (MALME-3M melanoma) was > 100 µM. For the same compound, the TGI (NCI-H460 lung) was > 100 µM, the TGI (M19-MEL melanoma) was > 100 µM and the TGI (SF-268 CNS) was > 100 µM. The TGI (NCI-H23 lung) was > 100 µM, the TGI (MOLT-4 leukemia) was > 100 µM and the TGI (OVCAR-5 ovarian) was > 100 µM. The TGI (DMS 114 small cell lung) was > 100 µM, the TGI (HCT-116 colon) was > 100 µM and the TGI (HCT-15 colon) was > 100 µM. The TGI (IGROV1 ovarian) was > 100 µM, the TGI (SNB-75 CNS) was > 100 µM and the TGI (OVCAR-8 ovarian) was > 100 µM. For the same compound, the TGI (A549 NSCLC) was > 100 µM, the TGI (LXFL 529 NSCLC) was > 100 µM and the TGI (SNB-78 CNS) was > 100 µM. For the same compound, the TGI (K-562 leukemia) was > 100 µM, the TGI (LOX IMVI melanoma) was > 100 µM and the TGI (COLO 205 colon) was > 100 µM. The TGI (RXF 393 renal) was > 100 µM.
